The values that follow come from patent US20130203805A1, “Methods for treating anemia using inhibitors of hypoxia-inducible factor (HIF) hydroxylase” (FIBROGEN, INC., priority 2001, published 2013).

The format of the data set is in vivo, Sprague Dawley male rats. The conditions noted are these: rat, in vivo, ip. Here is the method: The ability of a compound of the invention to treat anemia associated with post-ischemic acute renal failure was assayed using a procedure described by Vaziri et al. (1994, Am J Physiol 266(3 Pt 2):[…]-6.) Fifteen Sprague Dawley male rats (280-300 g) were obtained from Charles River Laboratories. On day 0, rats were treated by intraperitoneal injection with a single dose of saline (control; n=3) at 8 ml/kg, or cisplatin (CP; Bedford Laboratories, Bedford Ohio) at either 7 mg/kg (7 ml/kg; n=6) or 10 mg/kg (10 ml/kg; n=6). Blood samples (0.2 ml) were collected on days 5, 9, and 16 as follows. […] Blood samples were processed for hematocrit as described above to determine the degree of anemia produced in each animal. […] Blood samples (0.5 ml) were collected as described above immediately prior to treatment and 4 days after treatment initiation. Blood samples were analyzed for CBC and reticulocyte counts as described above. On day 9 after initiation of oral treatment, a blood sample (0.1 ml) was collected and processed for hematocrit as described above.

Like-named read-outs stand apart in the source and are kept apart here.

As to `N.N.[Cl][Pt][Cl]` [CP, cisplatin, reference compound], the “reduction of hematocrit relative to controls” value by setting is: (7 mg/kg) 14%; (10 mg/kg) 22%.
